Values of other authors in US20040067947A1, “Method of preventing or treating atherosclerosis or restenosis” (priority 2002, published 2004).

Tested on: CMV infection of rats
Details: rats infected with CMV; DHPG prophylaxis; Lemstrom et al., Circulation 1994, 90:1969-1978

In the case of Nc1nc(O)c2ncn(COC(CO)CO)c2n1 [Ganciclovir], the “prevention of atherosclerosis resulting from CMV infection” value is listed as “prevent atherosclerosis”.
